In patent US11236055B2 (Venenum Biodesign, LLC, priority 2016, dated 2022):

What was measured:
human TGR5 receptor = biological target: T1, human TGR5 receptor (Homo sapiens, UniProt Q8TDU6); assay: Human TGR5 cAMP production assay; assay type: cell-based; settings: human TGR5, luminescent cAMP assay; coded A-D; read-out: Human TGR5 Lum. cAMP Activity (EC50)
T1 construct: host or cells: CHO-K1 (hTGR5-CHO cells)
T1 sequence (Q8TDU6 1-330): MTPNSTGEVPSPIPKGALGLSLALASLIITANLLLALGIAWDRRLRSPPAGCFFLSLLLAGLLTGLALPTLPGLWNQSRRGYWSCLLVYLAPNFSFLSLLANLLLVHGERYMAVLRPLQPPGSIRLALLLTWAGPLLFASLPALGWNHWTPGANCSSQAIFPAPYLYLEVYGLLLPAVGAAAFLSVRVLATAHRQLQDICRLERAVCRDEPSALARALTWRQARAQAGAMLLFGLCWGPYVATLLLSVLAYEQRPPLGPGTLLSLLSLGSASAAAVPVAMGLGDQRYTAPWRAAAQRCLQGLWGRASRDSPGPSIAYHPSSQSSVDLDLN
Method: Human TGR5 cAMP Production Assay
We evaluated the Compounds of the present invention for their ability to induce cAMP production using CHO-K1 cells overexpressing the human TGR5 receptor. CHO-K1 cells stably expressing human TGR5 receptor (accession number NM_001077194.1 (hTGR5) (i.e., hTGR5-CHO cells) were purchased from DiscoveRx Corporation (Fremont, Calif.). hTGR5-CHO cells were grown in Ham's F-12 media supplemented with 10% Fetal Bovine Serum, 1% Penicillin-Streptomycin, 2 mM L-Alanine L-Glutamine (Glutamax), and 800 μg/mL Geneticin selection. The cAMP production assay was performed using DiscoveRx's cAMP XS+ kit (Catalog No. 90-0075XL) following the manufacturer's recommended protocol. Briefly, hTGR5-CHO cells were harvested using non-enzymatic cell dissociation buffer (Sigma-Aldrich, St. Louis, Mo.) and 1×10^6 cells were combined in Phosphate-Buffered Saline (PBS) to a final volume of 496 μL to which 4 μL of 125 mM IBMX (Sigma-Aldrich, St. Louis, Mo.) was added. 500 μL of cAMP antibody solution was added to the harvested cells and incubated at room temperature for 20 min.
Test compounds were serially diluted (half-log dilutions) in DMSO and then further diluted 1:50 in PBS, 10 mM HEPES buffer. 2 μL of serially diluted compound was added to a 384-well low volume plate (Greiner; cat #784075) and centrifuged briefly. 2 μL of the cell/cAMP antibody mixture was then added to each compound-containing well and allowed to incubate at room temperature for one hour. Following incubation, the XS+ kits' ED/Lysis/CL Substrate Working Solution was prepared following the manufacturer's recommended protocol and 4 μL was added to each well of the plate. The plate was then incubated for one hour at room temperature. Following incubation, 4 μL of Enzyme Acceptor reagent was added to the plate and allowed to incubate overnight at room temperature. Luminescent signal was then detected using the Viewlux instrument (Perkin-Elmer, Waltham, Mass.).
(§1) In Table 33, EC50 values for both human and mouse cells were determined according to the TGR5 cAMP assays described above.

mouse TGR5 receptor = biological target: T2, mouse TGR5 receptor (Mus musculus, UniProt Q80SS6); assay: Mouse TGR5 cAMP production assay (HTRF, Cisbio cAMP HiRange); assay type: cell-based; settings: HEK293-EBNA cells overexpressing mouse TGR5, HTRF cAMP HiRange; coded A-D
T2 construct: expressed in transfected cells; host or cells: HEK293-EBNA (293 c18, ATCC CRL10852), Hygromycin B selection
T2 sequence (Q80SS6 1-329): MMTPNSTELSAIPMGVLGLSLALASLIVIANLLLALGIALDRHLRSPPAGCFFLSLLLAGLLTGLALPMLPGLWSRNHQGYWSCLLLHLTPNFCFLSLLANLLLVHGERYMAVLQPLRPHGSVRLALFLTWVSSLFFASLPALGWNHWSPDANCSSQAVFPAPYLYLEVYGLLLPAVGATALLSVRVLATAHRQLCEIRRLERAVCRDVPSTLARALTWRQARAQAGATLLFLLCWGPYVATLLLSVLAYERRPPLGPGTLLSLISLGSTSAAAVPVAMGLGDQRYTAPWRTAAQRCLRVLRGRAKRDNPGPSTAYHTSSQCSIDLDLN
Source text: Mouse TGR5 cAMP Production Assay
We evaluated compounds of the present invention for their ability to induce cAMP production in HEK-EBNA cells overexpressing the mouse TGR5 receptor. Human embryonic kidney cells (HEK293-EBNA) stably expressing mouse TGR5 receptor were established using the following procedure. Specifically, a commercially-obtained gene encoding mouse TGR5 (accession number BC116914) from Thermo Scientific (Waltham, Mass.) was cloned into an episomal expression vector. The resulting expression plasmid was then transfected into 293 c18 (ATCC® CRL10852™) cells, which express the Epstein-Barr virus nuclear antigen EBNA1 and can support the replication of episomal vectors. Selection for the plasmid was maintained with Hygromycin B. Cells were cultured and maintained in DMEM (Sigma; cat #6429) supplemented with 10% Fetal Bovine Serum, 1% penicillin/streptomycin, 2 mM L-alanine L-glutamine (GlutaMax), and 250 μg/mL Hygromycin.
2. HTRF cAMP Production Assay
In this second cAMP production assay, the cAMP production was measured in 384-well low volume plates (Greiner; cat #784075) using the Cisbio™ cAMP HiRange HTRF Assay Kit (Cisbio) according to the manufacturer's protocol.
Briefly, compounds were initially diluted in 100% DMSO (12-point serial dilution by half logs) in a 96-well plate and then were further diluted 1:50 in PBS containing 10 mM HEPES. 5 μL were transferred to the 384-well assay plate in duplicate. HEK293-EBNA cells stably overexpressing mouse TGR5 were harvested using non-enzymatic cell dissociation buffer (Sigma), spun down, then resuspended in serum-free DMEM with 500 μM IBMX at a density of 500,000 cells/mL. 5 μL of cell suspension was transferred to each well of the 384-well assay plate already containing compound. The plate was covered and incubated at room temperature for 1 hour. The d2-cAMP and anti-cAMP Ab-cryptate stock solutions were prepared as per kit instructions. Then 5 μL of each conjugate (d2 and cryptate) were added to each well of the assay plate. The plate was covered and incubated at room temperature for 1 hour. The plate was read on an Envision™ plate reader (Perkin Elmer).
as §1

| EC50 (human TGR5 receptor) | EC50 (mouse TGR5 receptor) | SMILES |
| --- | --- | --- |
| < 100 nM | 100 to 999 nM | Cc1cnccc1-c1cccc([C@H](C)N(CCCC(=O)NCCN)S(=O)(=O)c2ccccc2C(F)(F)F)c1 [Compound 20BX] |
| 100 to 999 nM | 1000 to 30000 nM | Cc1ccccc1S(=O)(=O)N(CCCC(=O)NCCS(=O)(=O)O)[C@@H](C)c1cccc(-c2ccncc2O)c1 [Compound 22AA, (S)-2-(4-(N-(1-(3-(3-hydroxypyridin-4-yl)phenyl)ethyl)-2-methylphenylsulfonamido)butanamido)ethanesulfonic acid] |
| 1000 to 30000 nM | 1000 to 30000 nM | Cc1cnccc1-c1cccc(C(C)N(CCNc2c(NCS(=O)(=O)O)c(=O)c2=O)S(=O)(=O)c2cccc(Cl)c2C)c1 (stereo not drawn) [Compound 32, 2-((2-((2-(3-chloro-2-methyl-N-(1-(3-(3-methylpyridin-4-yl)phenyl)ethyl)phenylsulfonamido)ethyl)amino)-3,4-dioxocyclobut-1-en-1-yl)amino)methanesulfonic acid] |
| 1000 to 30000 nM | 1000 to 30000 nM | Cc1c(Cl)cccc1S(=O)(=O)N1CCN(C(=O)CCC(=O)O)CC1c1cccc(-c2ccncc2)c1 (stereo not drawn) [Compound 46AF, 4-(4-((3-chloro-2-methylphenyl)sulfonyl)-3-(3-(pyridin-4-yl)phenyl)piperazin-1-yl)-4-oxobutanoic acid] |
| 100 to 999 nM | 100 to 999 nM | Cc1cnccc1-c1cccc([C@H]2C[C@@H](C(=O)O)CCN2S(=O)(=O)c2ccccc2C(F)(F)F)c1 (relative stereo) [Compound 55, cis-2-(3-(3-Methylpyridin-4-yl)phenyl)-1-((2-(trifluoromethyl)phenyl)sulfonyl)piperidine-4-carboxylic acid] |
| < 100 nM | < 100 nM | CCc1cnccc1-c1cccc(C2CN(C(=O)CN(C)CC(=O)O)CCN2S(=O)(=O)c2cccc(Cl)c2C)c1 (stereo not drawn) [Compound 46AC, 2-((2-(4-((3-chloro-2-methylphenyl)sulfonyl)-3-(3-(3-ethylpyridin-4-yl)phenyl)piperazin-1-yl)-2-oxoethyl)(methyl)amino)acetic acid] |
| < 100 nM | 100 to 999 nM | CCc1cnccc1-c1cccc([C@H](C)N(CCCC(=O)NCCN)S(=O)(=O)c2cccc(Cl)c2C)c1 [Compound 21AS, (S)-N-(2-aminoethyl)-4-(3-chloro-N-(1-(3-(3-ethylpyridin-4-yl)phenyl)ethyl)-2-methylphenylsulfonamido)butanamide] |
| < 100 nM | < 100 nM | CCc1cnccc1-c1cccc([C@H](C)N(CCCC(=O)NCS(=O)(=O)O)S(=O)(=O)c2cccc(Cl)c2C)c1 [Compound 21AR, (S)-(4-(3-chloro-N-(1-(3-(3-ethylpyridin-4-yl)phenyl)ethyl)-2-methylphenylsulfonamido)butanamido)methanesulfonic acid] |
| 1000 to 30000 nM | 1000 to 30000 nM | Cc1ccc(S(=O)(=O)NC(CCCCC#N)c2cccc(-c3ccncc3C)c2)nc1 (stereo not drawn) [Compound 35B, N-(5-cyano-1-(3-(3-methylpyridin-4-yl)phenyl)pentyl)-5-methylpyridine-2-sulfonamide] |
| < 100 nM | 100 to 999 nM | Cc1cnccc1-c1cccc(C(C)(C)NS(=O)(=O)c2ccccc2[N+](=O)[O-])c1 [Compound 5AP, N-(2-(3-(3-methylpyridin-4-yl)phenyl)propan-2-yl)-2-nitrobenzenesulfonamide] |
| 100 to 999 nM | 100 to 999 nM | Cc1c(Cl)cccc1S(=O)(=O)N1CCN(C(=O)CS(=O)(=O)O)CC1c1cccc(-c2ccncc2)c1 (stereo not drawn) [Compound 49AD, 2-(4-((3-chloro-2-methylphenyl)sulfonyl)-3-(3-(pyridin-4-yl)phenyl)piperazin-1-yl)-2-oxoethanesulfonic acid] |
| 100 to 999 nM | 100 to 999 nM | COc1cnccc1-c1cccc(C(C)(C)NS(=O)(=O)c2ccccc2N)c1 [Compound 10, 2-amino-N-(2-(3-(3-methoxypyridin-4-yl)phenyl)propan-2-yl)benzenesulfonamide] |
| < 100 nM | < 100 nM | CCc1cnccc1-c1cccc([C@H](C)N(CCCC(=O)NCS(=O)(=O)O)S(=O)(=O)c2ccccc2C(F)(F)F)c1 [Compound 20BE, (S)-(4-(N-(1-(3-(3-ethylpyridin-4-yl)phenyl)ethyl)-2-(trifluoromethyl)phenylsulfonamido)butanamido)methanesulfonic acid] |
| < 100 nM | < 100 nM | CCc1cnccc1-c1cccc([C@H](CCCC#N)NS(=O)(=O)c2ccccc2C(F)(F)F)c1 [Compound 6AC, (S)-N-(4-cyano-1-(3-(3-ethylpyridin-4-yl)phenyl)butyl)-2-(trifluoromethyl)benzenesulfonamide] |
| 100 to 999 nM | 100 to 999 nM | Cc1cnccc1-c1cccc(C(CCCCNC(=O)NCCS(=O)(=O)O)NS(=O)(=O)c2ccccc2C(F)(F)F)c1 (stereo not drawn) [Compound 28AG, 2-(3-(5-(3-(3-methylpyridin-4-yl)phenyl)-5-(2-(trifluoromethyl)phenylsulfonamido)pentyl)ureido)ethanesulfonic acid] |
| < 100 nM | < 100 nM | Cc1cnccc1-c1cccc(C(C)(C)N(CCCNS(=O)(=O)CCNC(=O)NCCS(=O)(=O)O)S(=O)(=O)c2cccc(Cl)c2C)c1 [Compound 28AD, 2-(3-(2-(N-(3-((3-chloro-2-methyl-N-(2-(3-(3-methylpyridin-4-yl)phenyl)propan-2-yl)phenyl)sulfonamido)propyl)sulfamoyl)ethyl)ureido)ethane-1-sulfonic acid] |
| 1000 to 30000 nM | 100 to 999 nM | COc1cccc(S(=O)(=O)N2CCN(C(=O)CCC(=O)O)CC2c2cccc(-c3ccncc3C)c2)c1 (stereo not drawn) [Compound 46AJ, 4-(4-((3-methoxyphenyl)sulfonyl)-3-(3-(3-methylpyridin-4-yl)phenyl)piperazin-1-yl)-4-oxobutanoic acid] |

| SMILES | EC50 (human TGR5 receptor) | EC50 (mouse TGR5 receptor) |
| --- | --- | --- |
| CCc1cnccc1-c1cccc(C2CN(C(=O)CP(=O)(O)O)CCN2S(=O)(=O)c2cccc(Cl)c2C)c1 (stereo not drawn) [Compound 50] | 100 to 999 nM | < 100 nM |
